The source made the active and inactive calls. How the calls were made is not given here.
Target: Methyl-CpG-binding domain protein 2 (Homo sapiens) (UniProt Q9UBB5)
Test: MBD2-DBD methyl-oligonucleotide interaction blockers – biochemical, TR-FRET, DNA-binding domain, late stage, dose response (AID 1053169)
Conditions: TR-FRET MBD2-DBD binding to methylated oligonucleotide

Sequence of Methyl-CpG-binding domain protein 2 (Homo sapiens) (Q9UBB5 whole entry, looked up, the tested form may be a part): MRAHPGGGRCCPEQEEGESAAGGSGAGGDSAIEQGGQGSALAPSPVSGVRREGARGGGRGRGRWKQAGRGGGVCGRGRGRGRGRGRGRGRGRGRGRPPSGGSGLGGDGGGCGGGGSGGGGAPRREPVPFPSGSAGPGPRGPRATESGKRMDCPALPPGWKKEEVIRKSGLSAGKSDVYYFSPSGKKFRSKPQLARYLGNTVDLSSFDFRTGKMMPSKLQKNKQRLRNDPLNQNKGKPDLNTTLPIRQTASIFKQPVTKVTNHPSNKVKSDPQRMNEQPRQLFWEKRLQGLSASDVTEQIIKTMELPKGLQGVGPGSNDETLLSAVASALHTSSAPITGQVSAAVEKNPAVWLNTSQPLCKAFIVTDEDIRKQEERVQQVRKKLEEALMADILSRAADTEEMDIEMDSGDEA

SMILES	IC50
CCOc1ccc(S(=O)(=O)N2CCCC(C(=O)NCC3CCCO3)C2)cc1Cl (stereo not given)	> 43.8 µM (inactive)
CCc1cccc(OCC(=O)Nc2ccc(S(=O)(=O)Nc3ccccn3)cc2)c1	> 43.8 µM (inactive)
COc1ccc(NC(=O)CN2CCN(c3ccccc3C)CC2)cc1	> 43.8 µM (inactive)
CCCCn1c(NC(C)CC)nc2c1c(=O)[nH]c(=O)n2C (stereo not given)	> 43.8 µM (inactive)
Cc1cc(C)n2nc(CC(=O)NCc3ccc(F)cc3)nc2n1	> 43.8 µM (inactive)
COc1ccc(NC(=O)COC(=O)CCc2ccc(S(=O)(=O)N3CCOCC3)cc2)cc1Cl	> 43.8 µM (inactive)
CCOC(=O)c1oc2ccc(CNC(C)(C)C)c(Cl)c2c1C	> 43.8 µM (inactive)
O=C(Nc1ccc(OCc2ccccc2)cc1)c1ccccc1	> 43.8 µM (inactive)
CCOC(=O)c1ccc(NC(=O)COc2ccc(CNCCO)cc2OCC)cc1	> 43.8 µM (inactive)
CC(C)n1nc(C(=O)Nc2nc3ccccc3[nH]2)c2ccccc2c1=O	> 43.8 µM (inactive)
CSc1ccc(OC2CCCCC2NS(=O)(=O)c2ccccc2)cc1 (stereo not given)	> 43.8 µM (inactive)
COc1ccccc1C(=O)COC(=O)c1ccc(N(C)C)cc1	> 43.8 µM (inactive)
COc1ccc(C(=O)N2CCC(C(=O)Nc3ccc(C)cc3)CC2)cc1	> 43.8 µM (inactive)
COc1ccc(NC(=O)Cn2cc(C(C)=O)c3ccccc32)cc1	> 43.8 µM (inactive)
Cc1ccc(Cl)cc1N1CCN(S(=O)(=O)c2ccc3c(c2)NC(=O)C(C)C(=O)N3)CC1 (stereo not given)	> 43.8 µM (inactive)
CC(C)C(=O)Nc1nnc(SCC(=O)NC2CCCC2)s1	> 43.8 µM (inactive)
CSc1ccc(OC2CCCCC2NS(=O)(=O)c2ccc(Cl)cc2)cc1 (stereo not given)	> 43.8 µM (inactive)
O=C(CSc1nc(-c2ccccc2)c(-c2ccccc2)o1)N1CCOCC1	> 43.8 µM (inactive)
O=C(CSc1ccccn1)Nc1ccc(N2CCOCC2)cc1	> 43.8 µM (inactive)
CC(=O)N(c1ccccc1)c1nc(/C=C/C(=O)Nc2c(C)cc(C)cc2C)cs1	> 43.8 µM (inactive)

— PubChem BioAssay AID1053169 (The Scripps Research Institute Molecular Screening Center, 2014)
